Measured values taken from US10759740B2, “Antibacterial agents” (Rutgers, The State University of New Jersey, priority 2016, dated 2020).
≈ marks a conversion by molar mass, not a printed value.

Tests used:
[1] = system: Salmonella enterica serovar typhimurium; experiment: Broth microdilution assay (MIC); format: cell-based; conditions: BHI broth, 37° C., 24 h, no visible growth
Method: (§1) From the frozen stock (−80° C.), bacteria were inoculated into brain-hear infusion (BHI) agar (Becton Dickinson, Franklin Lakes, N.J.) and propagated under aerobic conditions at 37° C. for 24 h. After the incubation, one colony of each bacterial strain was transferred to BHI broth (Becton Dickinson, Franklin Lakes, N.J.) and sub-cultured at least twice into BHI before being used in experiments.
(§2) The minimal inhibitory concentration (MIC) of CAms were identified using a broth microdilution assay modified from previous studies. Briefly, the stock solutions of CAMs were first prepared by dissolving in double-distilled water (ddH2O) and then diluted in BHI broth at pre-determined concentrations. Further serial 2-fold dilutions were performed in a 96-well microplate (Becton Dickinson, Franklin Lakes, N.J.) with BHI broth. The inoculum concentration was adjusted to 5×10^6 CFU/mL with ultraviolet-visible (UV-vis) spectroscopy at 600 nm. An equal volume (100 μL) of bacterial suspension was added to each microplate well with a final volume of 200 μL. Plates were incubated at 37° C. for 24 h under aerobic conditions. The lowest CAm concentration that yielded no visible growth was recorded as the MIC. Cetyltrimethylammonium bromide (CTAB), a cationic amphiphile, served as a positive control that could mimic the proposed bactericidal mechanism of the newly synthesized tartaric acid-based compounds.
(§3) CAms were evaluated against five selected pathogenic microorganisms, including Gram-positive bacteria (i.e., S. aureus and L. monocytogenes) and Gram-negative bacteria (i.e., E. coli, S. typhimurium, and P. aeruginosa), using a turbidity-based microdilution method. MICs were taken as the lowest concentrations that inhibited the visible bacterial growth.

Escherichia coli O157:H7 = experiment: Broth microdilution assay (MIC); format: cell-based; conditions: BHI broth, 37° C., 24 h, no visible growth
Method: as §1, §2
as §3, with “growth. […] The higher MIC values for the Gram-negative bacteria could be attributed to the presence of an additional lipopolysaccharide layer, which forms a hydrophilic barrier that could prevent penetration of the highly hydrophobic CAms.” for “growth.”

[2] = system: Staphylococcus aureus ATCC 13565; experiment: Broth microdilution assay (MIC); format: cell-based; conditions: BHI broth, 37° C., 24 h, no visible growth
Method: as §1, §2
as §3, with “growth. […] The higher MIC values for the Gram-negative bacteria could be attributed to the presence of an additional lipopolysaccharide layer, which forms a hydrophilic barrier that could prevent penetration of the highly hydrophobic CAms.” for “growth.”

[3] = system: Listeria monocytogenes Scott A; experiment: Broth microdilution assay (MIC); format: cell-based; conditions: BHI broth, 37° C., 24 h, no visible growth
Method: as §1, §2
as §3, with “growth. […] The higher MIC values for the Gram-negative bacteria could be attributed to the presence of an additional lipopolysaccharide layer, which forms a hydrophilic barrier that could prevent penetration of the highly hydrophobic CAms.” for “growth.”

[4] = system: Pseudomonas aeruginosa ATCC 15442; experiment: Broth microdilution assay (MIC); format: cell-based; conditions: BHI broth, 37° C., 24 h, no visible growth
Method: as §1, §2
as §3, with “growth. […] The higher MIC values for the Gram-negative bacteria could be attributed to the presence of an additional lipopolysaccharide layer, which forms a hydrophilic barrier that could prevent penetration of the highly hydrophobic CAms.” for “growth.”

[5] = system: Gram-positive and Gram-negative bacteria; experiment: Broth microdilution assay, whole panel; format: cell-based; conditions: 250 μg/mL
Method: as §1
as §2, with “Plates were incubated at 37° C. for 24 h under aerobic conditions.” left out, “Cetyltrimethylammonium bromide (CTAB), a cationic amphiphile, served as a positive control that could mimic the proposed bactericidal mechanism of the newly synthesized tartaric acid-based compounds.” left out
CAms were evaluated against five selected pathogenic microorganisms, including Gram-positive bacteria (i.e., S. aureus and L. monocytogenes) and Gram-negative bacteria (i.e., E. coli, S. typhimurium, and P. aeruginosa), using a turbidity-based microdilution method. […]

[6] = system: G. vaginalis pre-formed biofilms; experiment: MBC-B against pre-formed biofilms (Example 2); format: cell-based; conditions: ≥3 log reduction in viable cells
Method: The minimum biofilm bactericidal concentrations (MBC-Bs) of the cationic amphiphiles against pre-formed biofilms of L. monocytogenes and G. vaginalis were identified. The biofilms of the two targeted microorganisms were grown in 96-well plates according to established methodology for Gram-positive and Gram-variable bacteria (Tabak et al., FEMS microbiology letters. 2009; 301(1):69-76). To identify the reduction in the number of biofilm-associated viable cells treated with different concentrations of cationic amphiphiles, the spot plate method was used (Turovskiy et al., Infectious diseases in obstetrics and gynecology. 2012; 2012:284762, 9 pages). In brief, biofilms were washed, disrupted, diluted 10^1-10^8 times with fresh medium and the samples plated on suitable solid medium.

vaginal lactobacilli = experiment: MIC against vaginal lactobacilli; format: cell-based, Lactobacillus species
Method: According to Clinical and Laboratory Standards Institute (CLSI 2010), the MIC is defined as the lowest concentration of antimicrobial compound producing no visible growth or complete inhibition of bacterial growth during 24 h. To determine MIC values, the broth microdilution assay was performed according to Algburi et al. (Algburi et al., 2015. Path Dis 73(5)) with minor modifications. Briefly, the overnight-grown cells were diluted with their suitable culture medium to approach ˜10^6 CFU/ml. The number of bacterial cells was identified using spot plate method (Turovskiy et al., 2012. Infect Dis Obstet Gynecol 2012:284762). The CAms were serially diluted twofold with sBHI into a non-tissue culture 96-well microplate plate (Falcon, Corning Incorporated, Corning, N.Y., USA) resulting in a final volume of 100 μl for each well. Aliquots of 100 μl of the diluted cell suspension (˜10^6 CFU/ml) were added to each well of a microplate that was treated with different concentrations of CAms. To avoid culture medium evaporation, 75 μl of mineral oil (Sigma-Aldrich, St. Louis, Mo.) was added to each treated well. The microplate was then transferred to the plate reader (Model 550, Bio-Rad Laboratories, Hercules, Calif., USA) and incubated at 37° C. for 24-36 h. The kinetic reading was statistically analyzed, and the MIC and sub-MIC of each CAm compound were determined.

[7] = system: planktonic cells of G. vaginalis; experiment: Checkerboard assay, planktonic cells; format: cell-based, Gardnerella vaginalis
Method: To evaluate the potential effectiveness of the antimicrobial combinations on planktonic and biofilm cells, a checkerboard assay was performed following Algburi et al. (Algburi et al., 2015. Path Dis 73(5)) with minor modifications. For planktonic cells, the overnight grown G. vaginalis was diluted to approximately 10^6 CFU/ml. Each antimicrobial agent was diluted twofold with sBHI broth into two separate 96-well non-tissue culture microplates. From each dilution of antimicrobial B, 50 μl was added horizontally over 50 μl of antimicrobial A. Then, 100 μl of bacterial suspension (10^6 CFU/ml) was separately added to the predetermined concentration of antimicrobial combinations. The MIC of each combination was determined after 24 h of incubation.
(§4) Isobolograms were used to compare the MIC and MBC-B values of each antimicrobial alone with its MIC and MBC-B values in combination with other antimicrobials. The point on the axis (X) refers to MIC or MBC-B values of the first antimicrobial with the coordinates (0, x), and the point on the axis (Y) represents the MIC or MBC-B values of the second antimicrobial with the coordinates (y, 0) when they used alone. The two MIC or MBCs-B values are connected by a dashed line (Turovskiy Y, Chikindas M L. 2011 Probiotics Antimicrob Proteins 3:144-149). The MICs or MBCs-B of each antimicrobial combination are plotted as dots on the graph. Results are expressed according to the locations of these dots from the line that connects MICs or MBCs-B of the first and second antimicrobials. When MICs or MBCs-B values are located under the line, the two combining antimicrobials are synergized, but antagonized against the tested microorganism when these dots of interaction are above. An additive effect is observed when these dots are located on the line.

biofilms of G. vaginalis = experiment: Checkerboard assay, biofilm cells; format: cell-based, Gardnerella vaginalis
Method: For biofilm formation, the overnight culture of G. vaginalis was diluted to approximately 10^7 CFU/ml and 200 μl was transferred into a 96-well tissue culture microplate and incubated anaerobically at 37° C. for 24-36 h. Following biofilm formation and removal of non-adherent cells by washing the biofilm twice with BHIG, each antimicrobial was diluted twofold separately with BHIG broth into two 96-white deep-well microplates. From each dilution of antimicrobial B, 125 μL was added horizontally over 125 μL of antimicrobial A (see FIG. 1 of Algburi et al., 2015. Path Dis 73(5)). From each combination, 200 μL samples were added to the biofilm in sequence, and the microplate was incubated for 24 h at 37° C. under anaerobic conditions. The spot plate method was utilized for counting the number of CFU/ml and evaluating the bactericidal activity (MBC-B) of each antimicrobial combination against biofilm-associated G. vaginalis. Isobolograms were used to analyze the nature of antimicrobial interaction, which is classified as synergistic, antagonistic or additive activity against the planktonic and biofilm cells.
as §4

Row | metronidazole's MIC in combination with the tested CAms [7] | MIC ([7]; Gardnerella vaginalis, read-out: MIC when used alone) | metronidazole's MIC against biofilms in combination with the tested CAms (biofilms of G. vaginalis) | metronidazole's MIC against biofilms, metronidazole alone (biofilms of G. vaginalis) | SMILES | MIC S. typhimurium (G−) [1] | MIC E. coli (G−) (Escherichia coli O157:H7) | MIC S. aureus (G+) [2] | MIC L. monocytogenes (G+) [3] | MIC P. aeruginosa (G−) [4] | antimicrobial activity at the highest concentration tested [5] | MBC ([6]; Gardnerella vaginalis, pre-formed biofilm) | MBC-B, biofilm-associated G. vaginalis [6] | concentration that inhibited the growth of vaginal lactobacilli (vaginal lactobacilli)
1 |  |  |  |  | CCCCCCCCCCCCOC(C(=O)NCCN)C(OCCCCCCCCCCCC)C(=O)NCCN.Cl.Cl (stereo not shown) [5c] | >250 µg/mL | >250 µg/mL | 3.9 µg/mL | 125 µg/mL | >250 µg/mL | didn't show appreciable antimicrobial activity |  |  | 
2 |  |  |  |  | CCCCCCCCCCCC(=O)OC(C(=O)NCCN)C(OC(=O)CCCCCCCCCCC)C(=O)NCCN.Cl.Cl (stereo not shown) [8c] | >250 µg/mL | >250 µg/mL | 15.6 µg/mL | >250 µg/mL | >250 µg/mL | didn't show appreciable antimicrobial activity |  |  | 
3 |  |  |  |  | CCC[C@@H]1C[C@@H](C(=O)N[C@@H]([C@H]2O[C@H](SC)[C@H](O)[C@@H](O)[C@H]2O)[C@H](C)Cl)N(C)C1 [clindamycin, reference compound] |  |  |  |  |  |  | 20000 µg/mL (≈ 47.1 mM) |  | 
4 | 4.7 µM | 37.4 µM | 11.1 µM | 40.4 µM | Cc1ncc([N+](=O)[O-])n1CCO [metronidazole, reference compound] |  |  |  |  |  |  |  | 500 µg/mL (≈ 2.92 mM) | > 1168.5 µM
